From US20250188088A1, “COMPOUND AND USE THEREOF” (ONQUALITY PHARMACEUTICALS CHINA LTD., priority 2022, published 2025)

Experiments:
[1] = tested on: rash caused by monoclonal EGFR inhibitors; assay: Prevention of rash caused by monoclonal EGFR inhibitors, topical ointment, rat model; format: in vivo, SD rats
Procedure: An Experiment to Verify the Prevention of Rash Caused by Monoclonal EGFR Inhibitors with Topical Administration of Compounds of the Present Application on a Rat Animal Model After the SD rats were fed and adapted for one week (about 200 g), the rats were divided into 10 rats per group. The hair on the back of rats was gently removed with an electric razor one day before the experiment, and then an administration test was carried out. The experiments were divided into the administration group with the compound of the present application and the control group. The EGFR monoclonal antibody solution diluted with normal saline was injected via the tail vein twice a week, and the injection rate and time are shown in Table 2. After injection, the administration group applied the compound ointment of the present application on the backs (about 3 cm*3 cm) of rats every day, and the control group applied blank matrix ointment (about 0.5 g) to the backs (about 3 cm*3 cm) of rats every day. After drug application, the rats were fixed with a fixed cyclinder for 4 h; after that, the rats were released and the residual drug at the application site was wiped off with clear water. Monoclonal antibody EGFR inhibitors were injected via the tail vein twice a week, and the compound of the present application and blank ointment were applied once a day until obvious rashes appeared in the control group. […] Table 2 lists the animal experiment combinations of various monoclonal antibody EGFR inhibitors and the compound ointment of the present application, as well as the corresponding experiment results (wherein, the value in the control rate column=the number of rats whose rash is milder in the administration group than that in the control group/the total number of rats in the administration group×100%).

[2] = tested on: rash caused by monoclonal EGFR inhibitors; assay: Treatment of rash caused by monoclonal EGFR inhibitors, topical ointment, rat model; format: in vivo; conditions: SD rats
Procedure: An Experiment to Verify the Treatment of Rash Caused by Monoclonal EGFR Inhibitors with Topical Administration of Compounds of the Present Application on a Rat Animal Model After the SD rats were fed and adapted for one week (about 200 g), the rats were divided into 10 rats per group. The hair on the back of rats was gently removed with an electric razor one day before the experiment, and then an administration test was carried out. The EGFR monoclonal antibody solution diluted with normal saline was injected via tail vein twice a week, and the injection rate and time were shown in Table 4; the treatment experiment was started at the time point when rats developed a rash after continuous administration for 1-2 weeks. The experiments were divided into the administration group with the compound of the present application and the control group. During the treatment experiment, monoclonal antibody EGFR inhibitors were injected twice a week. the administration group applied the compound ointment of the present application on the back (about 3 cm*3 cm) of rats every day, and the control group applied blank matrix ointment on the back (about 3 cm*3 cm); after application, the rats were fixed with a fixed cyclinder for about 4 hours, and then the rats were released, with the residual drug at the application site wiped off with clean water, and put back into the cage. […] Table 4 lists the animal experiment combinations of monoclonal antibody EGFR inhibitors and the compound ointment of the present application, as well as the corresponding experiment results (wherein, the value in the control rate column=the number of rats whose rash is milder in the administration group than that in the control group/the total number of rats in the administration group×100%).

[3] = tested on: rash caused by small molecule EGFR inhibitors; assay: Treatment of rash caused by small molecule EGFR inhibitors, topical ointment, rat model; format: in vivo, SD rats
Procedure: An Experiment to Verify the Treatment of Rash Caused by Small Molecule EGFR Inhibitors with Topical Administration of Compounds of the Present Application on a Rat Animal Model After the SD rats were fed and adapted for one week (about 200 g), the rats were divided into 10 rats per group. The hair on the back of rats was gently removed with an electric razor one day before the experiment, and then an intragastric administration test was carried out. EGFR inhibitors were dissolved in a sterile aqueous solution, and diluted with PBS buffer; the amount of each gavage was not more than 2 mL, and the dosage was shown in Table 3. […] The experiments were divided into the administration group with the compound of the present application and the control group. During the treatment experiment, EGFR inhibitors were intragastrically administered continuously every day. After the gavage, the administration group applied the compound ointment of the present application on the back (about 3 cm*3 cm) of rats, and the control group applied blank matrix ointment on the back (about 3 cm*3 cm); after application, the rats were fixed with a fixed cyclinder for about 4 hours, and then the rats were released, with the residual drug at the application site wiped off with clean water, and put back into the cage. The frequency of intragastric administration of EGFR inhibitors is shown in Table 3, but the compounds of the present application and blank ointment are applied only once a day. […] Table 3 lists the animal experiment combinations of various small molecule EGFR inhibitors and the compound ointment of the present application, as well as the corresponding experiment results (wherein, the value in the control rate column=the number of rats whose rash is milder in the administration group than that in the control group/the total number of rats in the administration group×100%).

[4] = tested on: skin contact delayed-type hypersensitivity; assay: Skin contact delayed-type hypersensitivity (DNFB) response test, ear swelling, topical ointment; format: in vivo; conditions: topical to ears, DNFB DTH, Balb/c mice, compared to blank ointment
Text: Therapeutic Effect of Topical Administration of Compounds of the Present Application in Skin Contact Delayed-Type Hypersensitivity Response Test in Mice Delayed-type hypersensitivity (DTH) response in mouse skin is considered to be an effective model for clinical contact dermatitis and other T cell-mediated cutaneous immune diseases, such as atopic dermatitis and psoriasis. The DTH in mice shares the common features with these cutaneous immune diseases, including immunoinfiltration with an increase of inflammatory cytokines and hyperproliferation of keratinocytes. Balb/c mice were sensitized by topical administration of the antigen 2,4-dinitrofluorobenzene (DNFB) to the shaved back of mice on Days 0 and 1. On Day 5, the thickness of the ears was measured using an engineering micrometer. The measurement result was recorded and used as a baseline. The animals were then challenged with a total of 20 μL of DNFB (10 μL for the internal pinna and 10 μL for the external pinna) topically dosed to both ears at a concentration of 0.2%. The ears were measured again 24-72 hours after challenge. The compound ointment of the present application was applied topically to the ears of the animals throughout the allergic and challenge periods (Days −1˜7) or before or throughout the challenge period (generally Days 4˜7). The therapeutic effect was expressed by a reduction in ear swelling compared to that of the blank ointment. The compound causing a reduction of 20% or more was considered effective. Table 5 lists the skin contact delayed-type hypersensitivity experiment results in mice treated with the compound of the present application.

[5] = Cetuximab 100 mg/kg twice a week via tail vein, ointment 0.2 wt% once a day, 10 days
[6] = Panitumumab 10 mg/kg twice a week via tail vein, ointment 5.0 wt% once a day, 14 days
[7] = Cetuximab 102 mg/kg twice a week via tail vein, ointment 5.0 wt%, 10 days of drug application
[8] = EAI045 80 mg/kg once a day, 8 dosing modelling days, ointment 1.0 wt% once a day
[9] = EAI045 80 mg/kg once a day, 8 dosing modelling days, ointment 10.0 wt% once a day
[10] = Osimertinib 60 mg/kg twice a day, 7 dosing modelling days, ointment 0.5 wt% once a day
[11] = Osimertinib 60 mg/kg twice a day, 7 dosing modelling days, ointment 5.0 wt% once a day
[12] = Afatinib 40 mg/kg once a day, 6 dosing modelling days, ointment 5.0 wt% once a day
[13] = EAI045 80 mg/kg once a day, 8 dosing modelling days, ointment 5.0 wt% once a day
[14] = Osimertinib 60 mg/kg twice a day, 7 dosing modelling days, ointment 1.0 wt% once a day

C[C@@H]1CN(C(=O)CC#N)[C@@]12CCN(c1ncnc3c1ccn3C(=O)N(C)CCOC(=O)C1CC1)C2 [Compound A27]
Control Rate [1, 5]: 20% | Control Rate ([1]; Cetuximab 100 mg/kg twice a week via tail vein, ointment 3.0 wt% once a day, 10 days): 40% | Control Rate ([1]; Panitumumab 10 mg/kg twice a week via tail vein, ointment 1.0 wt% once a day, 14 days): 45% | Control Rate [1, 6]: 70% | Control Rate ([2]; Cetuximab 102 mg/kg twice a week via tail vein, ointment 1.0 wt%, 10 days of drug application): 30% | Control Rate [2, 7]: 80% | Control Rate ([2]; Panitumumab 6 mg/kg twice a week via tail vein, ointment 0.1 wt%, 8 days of drug application): 60% | Control Rate ([2]; Panitumumab 6 mg/kg twice a week via tail vein, ointment 3.0 wt%, 8 days of drug application): 90% | Control Rate [3, 8]: 60% | Control Rate ([3]; EAI045 80 mg/kg once a day, 8 dosing modelling days, ointment 3.0 wt% once a day): 80% | Control Rate ([3]; Osimertinib 60 mg/kg twice a day, 7 dosing modelling days, ointment 0.2 wt% once a day): 40% | Control Rate ([3]; Osimertinib 60 mg/kg twice a day, 7 dosing modelling days, ointment 4.0 wt% once a day): 100%

C[C@@H]1CN(C(=O)CC#N)[C@@]12CCN(c1ncnc3c1ccn3C(=O)N(C)CCOC(=O)C1CCCCC1)C2 [Compound A28]
Control Rate [1, 5]: 30% | Control Rate ([1]; Cetuximab 100 mg/kg twice a week via tail vein, ointment 5.0 wt% once a day, 10 days): 70% | Control Rate ([1]; Panitumumab 10 mg/kg twice a week via tail vein, ointment 0.2 wt% once a day, 14 days): 45% | Control Rate [1, 6]: 100% | Control Rate ([2]; Cetuximab 102 mg/kg twice a week via tail vein, ointment 0.3 wt%, 10 days of drug application): 40% | Control Rate [2, 7]: 70% | Control Rate ([2]; Panitumumab 6 mg/kg twice a week via tail vein, ointment 2.0 wt%, 8 days of drug application): 60% | Control Rate ([2]; Panitumumab 6 mg/kg twice a week via tail vein, ointment 10.0 wt%, 8 days of drug application): 100% | Control Rate ([3]; BPI-7711 60 mg/kg once a day, 6 dosing modelling days, ointment 3.0 wt% once a day): 80% | Control Rate ([3]; Dacomitinib 10 mg/kg once a day, 5 dosing modelling days, ointment 0.2 wt% once a day): 30% | Control Rate ([3]; Dacomitinib 10 mg/kg once a day, 5 dosing modelling days, ointment 2.0 wt% once a day): 60% | Control Rate ([3]; Dacomitinib 10 mg/kg once a day, 5 dosing modelling days, ointment 5.0 wt% once a day): 80% | Control Rate ([3]; Dacomitinib 10 mg/kg once a day, 5 dosing modelling days, ointment 10.0 wt% once a day): 60% | Control Rate [3, 8]: 40% | Control Rate [3, 9]: 100% | Control Rate ([3]; Gefitinib 80 mg/kg twice a day, 10 dosing modelling days, ointment 1.0 wt% once a day): 30% | Control Rate ([3]; Gefitinib 80 mg/kg twice a day, 10 dosing modelling days, ointment 5.0 wt% once a day): 30% | Control Rate ([3]; Larotinib 20 mg/kg once a day, 6 dosing modelling days, ointment 3.0 wt% once a day): 40% | Control Rate [3, 10]: 20% | Control Rate [3, 11]: 60%

C[C@@H]1CN(C(=O)CC#N)[C@@]12CCN(c1ncnc3c1ccn3C(=O)N(C)CCOC(=O)c1ccn[nH]1)C2 [Compound A31]
Reduction Rate of Ear Swelling ([4]; ointment 1.0 wt%): 16% | Reduction Rate of Ear Swelling ([4]; ointment 5.0 wt%): 28% | Control Rate ([3]; Afatinib 40 mg/kg once a day, 6 dosing modelling days, ointment 0.1 wt% once a day): 10% | Control Rate ([3]; Afatinib 40 mg/kg once a day, 6 dosing modelling days, ointment 1.0 wt% once a day): 60% | Control Rate ([3]; Afatinib 40 mg/kg once a day, 6 dosing modelling days, ointment 3.0 wt% once a day): 70% | Control Rate [3, 12]: 90% | Control Rate ([3]; Afatinib 40 mg/kg once a day, 6 dosing modelling days, ointment 10.0 wt% once a day): 90% | Control Rate ([3]; EAI045 80 mg/kg once a day, 8 dosing modelling days, ointment 0.1 wt% once a day): 20% | Control Rate [3, 13]: 70% | Control Rate [3, 9]: 90% | Control Rate ([3]; Gefitinib 80 mg/kg twice a day, 10 dosing modelling days, ointment 0.3 wt% once a day): 20% | Control Rate ([3]; Gefitinib 80 mg/kg twice a day, 10 dosing modelling days, ointment 3.0 wt% once a day): 40% | Control Rate ([3]; Gefitinib 80 mg/kg twice a day, 10 dosing modelling days, ointment 10.0 wt% once a day): 90% | Control Rate [3, 10]: 40% | Control Rate [3, 14]: 60% | Control Rate [3, 11]: 70%

CN(CCOC(=O)C1CCCCC1)C(=O)n1ccc2c(-c3cnn(C4(CC#N)CN(C5CCN(C(=O)c6ccnc(C(F)(F)F)c6F)CC5)C4)c3)ncnc21 [Compound A36]
Reduction Rate of Ear Swelling ([4]; ointment 1.0 wt%): 29% | Reduction Rate of Ear Swelling ([4]; ointment 5.0 wt%): 34% | Control Rate ([3]; Afatinib 40 mg/kg once a day, 6 dosing modelling days, ointment 0.5 wt% once a day): 20% | Control Rate [3, 12]: 60% | Control Rate ([3]; BPI-7711 60 mg/kg once a day, 6 dosing modelling days, ointment 5.0 wt% once a day): 30% | Control Rate ([3]; EAI045 80 mg/kg once a day, 8 dosing modelling days, ointment 0.5 wt% once a day): 20% | Control Rate [3, 13]: 40% | Control Rate ([3]; Larotinib 20 mg/kg once a day, 6 dosing modelling days, ointment 5.0 wt% once a day): 60% | Control Rate [3, 14]: 30% | Control Rate ([3]; Osimertinib 60 mg/kg twice a day, 7 dosing modelling days, ointment 10.0 wt% once a day): 50%
